Read-outs that look alike come from different tables or passages of the source.
Legend:
[1] = test system: Key Broadleaf Weed and Crop Species; assay: Post-Emergent Test II: postemergent herbicidal activity, visual rating after 14 d (Table 7); assay type: in vivo; conditions: post-emergence, 336 h; for pest or weed control at 35 g/ha: 35 g ai/ha; for pest or weed control at 70 g/ha: 70 g ai/ha; for pest or weed control at 140 g/ha: 140 g ai/ha
Summary of the method: (§1)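 Post-emergence foliar spray, 187 L/ha, first/second true leaf stage plants in potting mix (pH 6.0-6.8). Rates: top rate and 2-fold serial dilutions to 1/16×. Solvent-blank controls. Readout: visual % kill at 14 d.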

[2] = test system: Key Grass and Sedge Weeds as well as Grass Crops; assay: Post-Emergent Test II: postemergent herbicidal activity, visual rating after 14 d (Table 8); assay type: in vivo; conditions: post-emergence, 336 h; for pest or weed control at 35 g/ha: 35 g ai/ha; for pest or weed control at 70 g/ha: 70 g ai/ha; for pest or weed control at 140 g/ha: 140 g ai/ha
Summary of the method: as §1

[3] = ABUTH: velvetleaf (Abutilon theophrasti), read-out: Visual Growth Reduction (%) 14 Days After Application ABUTH
[4] = AMARE: redroot pigweed (Amaranthus retroflexus), read-out: Visual Growth Reduction (%) 14 Days After Application AMARE
[5] = BRSNN: oilseed rape, canola (Brassica napus), read-out: Visual Growth Reduction (%) 14 Days After Application BRSNN
[6] = CHEAL: lambsquarters (Chenopodium album), read-out: Visual Growth Reduction (%) 14 Days After Application CHEAL
[7] = EPHHL: wild poinsettia (Euphorbia heterophylla), read-out: Visual Growth Reduction (%) 14 Days After Application EPHHL
[8] = HELAN: sunflower (Helianthus annuus), read-out: Visual Growth Reduction (%) 14 Days After Application HELAN
[9] = barnyardgrass (Echinochloa crus-galli), read-out: Visual Growth Reduction (%) 14 Days After Application, ECHCG
[10] = giant foxtail (Setaria faberi), read-out: Visual Growth Reduction (%) 14 Days After Application, SETFA
[11] = maize, corn (Zea mays), read-out: Visual Growth Reduction (%) 14 Days After Application, ZEAMX
[12] = rice (Oryza sativa), read-out: Visual Growth Reduction (%) 14 Days After Application, ORYSA
[13] = wheat, spring (Triticum aestivum), read-out: Visual Growth Reduction (%) 14 Days After Application, TRZAS
[14] = yellow nutsedge (Cyperus esculentus), read-out: Visual Growth Reduction (%) 14 Days After Application, CYPES

SMILES: COC(=O)c1nc(-c2cccc3c2OCO3)cc(N)c1Cl [Compound 93]
- pest or weed control at 35 g/ha [1, 3]: 0 to 29%
- pest or weed control at 70 g/ha [1, 3]: 0 to 29%
- pest or weed control at 140 g/ha [1, 3]: 45 to 59%
- pest or weed control at 35 g/ha [1, 4]: 0 to 29%
- pest or weed control at 70 g/ha [1, 4]: 0 to 29%
- pest or weed control at 140 g/ha [1, 4]: 60 to 74%
- pest or weed control at 35 g/ha [1, 5]: 0 to 29%
- pest or weed control at 70 g/ha [1, 5]: 30 to 44%
- pest or weed control at 140 g/ha [1, 5]: 60 to 74%
- pest or weed control at 35 g/ha [1, 6]: 60 to 74%
- pest or weed control at 70 g/ha [1, 6]: 75 to 84%
- pest or weed control at 140 g/ha [1, 6]: 95 to 100%
- pest or weed control at 35 g/ha [1, 7]: 0 to 29%
- pest or weed control at 70 g/ha [1, 7]: 0 to 29%
- pest or weed control at 140 g/ha [1, 7]: 0 to 29%
- pest or weed control at 35 g/ha [1, 8]: 45 to 59%
- pest or weed control at 70 g/ha [1, 8]: 60 to 74%
- pest or weed control at 140 g/ha [1, 8]: 75 to 84%
- pest or weed control at 35 g/ha [2, 9]: 0 to 29%
- pest or weed control at 70 g/ha [2, 9]: 0 to 29%
- pest or weed control at 140 g/ha [2, 9]: 0 to 29%
- pest or weed control at 35 g/ha [2, 10]: 0 to 29%
- pest or weed control at 70 g/ha [2, 10]: 0 to 29%
- pest or weed control at 140 g/ha [2, 10]: 0 to 29%
- pest or weed control at 35 g/ha [2, 11]: 0 to 29%
- pest or weed control at 70 g/ha [2, 11]: 0 to 29%
- pest or weed control at 140 g/ha [2, 11]: 0 to 29%
- pest or weed control at 35 g/ha [2, 12]: 0 to 29%
- pest or weed control at 70 g/ha [2, 12]: 0 to 29%
- pest or weed control at 140 g/ha [2, 12]: 0 to 29%
- pest or weed control at 35 g/ha [2, 13]: 0 to 29%
- pest or weed control at 70 g/ha [2, 13]: 0 to 29%
- pest or weed control at 140 g/ha [2, 13]: 0 to 29%
- pest or weed control at 35 g/ha [2, 14]: 0 to 29%
- pest or weed control at 70 g/ha [2, 14]: 0 to 29%
- pest or weed control at 140 g/ha [2, 14]: 0 to 29%

SMILES: COC(=O)c1nc(-c2cccc3c2OCC3)c(F)c(N)c1Cl [Compound 102]
- pest or weed control at 35 g/ha [1, 3]: 0 to 29%
- pest or weed control at 70 g/ha [1, 3]: 0 to 29%
- pest or weed control at 140 g/ha [1, 3]: 45 to 59%
- pest or weed control at 35 g/ha [1, 5]: 0 to 29%
- pest or weed control at 70 g/ha [1, 5]: 0 to 29%
- pest or weed control at 140 g/ha [1, 5]: 0 to 29%
- pest or weed control at 35 g/ha [1, 6]: 95 to 100%
- pest or weed control at 70 g/ha [1, 6]: 95 to 100%
- pest or weed control at 140 g/ha [1, 6]: 95 to 100%
- pest or weed control at 35 g/ha [1, 7]: 0 to 29%
- pest or weed control at 70 g/ha [1, 7]: 0 to 29%
- pest or weed control at 140 g/ha [1, 7]: 0 to 29%
- pest or weed control at 35 g/ha [1, 8]: 75 to 84%
- pest or weed control at 70 g/ha [1, 8]: 85 to 94%
- pest or weed control at 140 g/ha [1, 8]: 85 to 94%
- pest or weed control at 35 g/ha [2, 9]: 0 to 29%
- pest or weed control at 70 g/ha [2, 9]: 0 to 29%
- pest or weed control at 140 g/ha [2, 9]: 0 to 29%
- pest or weed control at 35 g/ha [2, 10]: 0 to 29%
- pest or weed control at 70 g/ha [2, 10]: 0 to 29%
- pest or weed control at 140 g/ha [2, 10]: 0 to 29%
- pest or weed control at 35 g/ha [2, 11]: 0 to 29%
- pest or weed control at 70 g/ha [2, 11]: 0 to 29%
- pest or weed control at 140 g/ha [2, 11]: 0 to 29%
- pest or weed control at 35 g/ha [2, 12]: 0 to 29%
- pest or weed control at 70 g/ha [2, 12]: 0 to 29%
- pest or weed control at 140 g/ha [2, 12]: 0 to 29%
- pest or weed control at 35 g/ha [2, 13]: 0 to 29%
- pest or weed control at 70 g/ha [2, 13]: 0 to 29%
- pest or weed control at 140 g/ha [2, 13]: 0 to 29%
- pest or weed control at 35 g/ha [2, 14]: 0 to 29%
- pest or weed control at 70 g/ha [2, 14]: 0 to 29%
- pest or weed control at 140 g/ha [2, 14]: 0 to 29%

Source: patent publication US9149038B2, “4-amino-6-(heterocyclic)picolinates and 6-amino-2-(heterocyclic)pyrimidine-4-carboxylates and their use as herbicides” (Dow AgroSciences LLC, priority 2013, dated 2015)
